Read-outs that look alike come from different tables or passages of the source. Positions of bridges follow the written chain, without caps; N, C: chain ends. Non-standard residues stand in square brackets, D forms with d. Residues, ends and D or L forms follow the SMILES beside them. *: point of attachment. Octanoyl(6-Me) = CCC(C)CCCCC(=O)*; Dab = NCC[CH](N)C(=O)O
How the values were obtained:
[1] = plasma CST concentration in critically ill patient (CE-MS/MS, TDM); type: in vivo, human; conditions: CST A + CST B = 100 %, reference standard was 37.2/62.8 %
Description: Clinical plasma samples from two critically ill patients were obtained from the Clinic of Hematology and Transfusiology of St Cyril and Methodius Hospital in Bratislava. After collection, the samples were stored at −80 °C. Before the analysis, the samples were thawed at laboratory temperature, vortexed, and then, 30 μL of the plasma sample was mixed with 30 μL of demineralized water and 120 μL of the IS working solution. […] Following this action, the supernatant was injected directly into the CE system from a CE vial.
The application potential of the validated CE-MS method was tested on the plasma samples obtained from the Clinic of Hematology and Transfusiology of St Cyril and Methodius Hospital in Bratislava. Samples were collected from two critically ill patients treated with multiple intravenous antibiotics and antifungals. The samples were collected before and 30 min after the intravenous (i.v.) administration of the drugs. Patient 1 was treated with meropenem, trimethoprim/sulphamethoxazol, and CST. […] The measured plasma CST concentration of patient 1 before drug administration was 0.82 ± 0.02 μg mL^−1 ([…], n = 3). […]
As previously stated, CST is a heterogeneous substance and, as such, differs not only between producers but also across batches produced by the same manufacturer. […] In clinical plasma samples, a reverse percentage representation of the CST forms was detected. […]

[2] = system: plasma proteins (especially acidic alpha glycoprotein); conditions: cited from earlier work
[3] = freeze and thaw stability in plasma QC samples; conditions: n = 5
Description: (§1) Quality control (QC) samples were prepared at three concentration levels: i.) low QC: 0.28 μg mL^−1 (CST A sulfate) and 0.47 μg mL^−1 (CST B sulfate); ii.) medium QC: 2.79 μg mL^−1 (CST A sulfate) and 4.71 μg mL^−1 (CST B sulfate); and iii.) high QC: 6.51 μg mL^−1 (CST A sulfate) and 10.99 μg mL^−1 (CST B sulfate). The calibration curve and the QC sample solutions were prepared by mixing 30 μL of the CST sulfate standard at the desired concentration level with 30 μL of demineralized water or plasma and 120 μL of the IS working solution. After being vortexed and left to rest at room temperature for 10 min, the samples were centrifuged at 30,000×g for 10 min. Following this action, supernatant was immediately injected from a CE vial. Every sample underwent three measurements.
(§2) During the validation process, two types of stability were assessed: freeze and thaw stability (three cycles of freezing and thawing at room temperature) and short-term stability (sample kept in an autosampler for 24 h at laboratory temperature). In order to compare the findings from the measurements of QC samples stored according to the guidelines with those of newly prepared QC samples, stability experiments were conducted.

[4] = short-term (autosampler) stability in plasma QC samples; conditions: n = 5
Description: as §1, §2

[5] = pediatric patients; sum of CST A and CST B; cited from earlier work
[6] = parameters: method as in PMID 30500757; conditions: used topically and orally; cited from earlier work

Q: With CCC(C)CCCCC(=O)NC(CCN)C(=O)NC(C(=O)NC(CCN)C(=O)NC1CCNC(=O)C(C(C)O)NC(=O)C(CCN)NC(=O)C(CCN)NC(=O)C(CC(C)C)NC(=O)C(CC(C)C)NC(=O)C(CCN)NC1=O)C(C)O (stereo not drawn) [CST A, colistin A] ({Octanoyl(6-Me)}-[Dab]T[Dab][Dab][Dab]LL[Dab][Dab]T; lactam 4-C; configuration not given here) as the compound, how does the “percentage representation of the CST forms in clinical plasma samples” value [1] read?
A: 76.4%

Q: And the “binding to plasma proteins” value ([2]; especially to acidic alpha glycoprotein)?
A: 56.6%

Q: What about the “Freeze-to-thaw stability, Found, QC high” value ([3]; plasma QC high, nominal 6.51 (CST A) / 10.99 (CST B) μg.mL^−1, three freeze-thaw cycles, CE-MS/MS) of the same compound?
A: 6.54 µg/mL

Q: And the “Freeze-to-thaw stability, Found, QC low” value ([3]; plasma QC low, nominal 0.28 (CST A) / 0.47 (CST B) μg.mL^−1, three cycles of freezing and thawing at room temperature, CE-MS/MS)?
A: 0.29 µg/mL

Q: And the “Freeze-to-thaw stability, Found, QC medium” value ([3]; plasma QC medium, nominal 2.79 (CST A) / 4.71 (CST B) μg.mL^−1, three freeze-thaw cycles, CE-MS/MS)?
A: 2.81 µg/mL

Q: And the “Freeze-to-thaw stability, RE, QC low” value ([3]; relative error in comparison to fresh sample, plasma QC low, three freeze-thaw cycles)?
A: 2.7%

Q: And the “Freeze-to-thaw stability, RE, QC medium” value ([3]; relative error in comparison to fresh sample, plasma QC medium, three freeze-thaw cycles)?
A: 1.7%

Q: What about the “Autosampler stability, Found, QC high” value ([4]; plasma QC high, nominal 6.51 (CST A) / 10.99 (CST B) μg.mL^−1, autosampler 24 h at laboratory temperature, CE-MS/MS) of the same compound?
A: 6.76 µg/mL

Q: What about the “Autosampler stability, Found, QC low” value ([4]; plasma QC low, nominal 0.28 (CST A) / 0.47 (CST B) μg.mL^−1, kept in autosampler 24 h at laboratory temperature, pooled human plasma, CE-MS/MS) of the same compound?
A: 0.29 µg/mL

Q: What about the “Autosampler stability, Found, QC medium” value ([4]; plasma QC medium, nominal 2.79 (CST A) / 4.71 (CST B) μg.mL^−1, autosampler 24 h at laboratory temperature, CE-MS/MS) of the same compound?
A: 2.94 µg/mL

Q: And the “Autosampler stability, RE, QC high” value ([4]; relative error in comparison to fresh sample, plasma QC high, autosampler 24 h at laboratory temperature)?
A: 2.3%

Q: And the “Autosampler stability, RE, QC medium” value ([4]; relative error in comparison to fresh sample, plasma QC medium, autosampler 24 h at laboratory temperature)?
A: 3.3%

Q: Which “binding to plasma proteins” value [2] does the source give for CC(C)CCCCC(=O)N[C@@H](CCN)C(=O)N[C@H](C(=O)N[C@@H](CCN)C(=O)N[C@H]1CCNC(=O)[C@H]([C@@H](C)O)NC(=O)[C@H](CCN)NC(=O)[C@H](CCN)NC(=O)[C@H](CC(C)C)NC(=O)[C@@H](CC(C)C)NC(=O)[C@H](CCN)NC1=O)[C@@H](C)O [CST B, colistin B] (HELM PEPTIDE1{[CC(C)CCCCC(=O)[*:2]].[Dab].T.[Dab].[Dab].[Dab].[dL].L.[Dab].[Dab].T}$PEPTIDE1,PEPTIDE1,5:R3-11:R2$$$V2.0) here?
A: 41.7%

Q: Which “mean steady-state concentration of CST in plasma, median” value [5] does the source give for Colistin [CST] here?
A: 2.92 µg/mL

Q: Which “absorption from the gastrointestinal tract” value [6] does the source give for colistin sulfate here?
A: minimal

Reference: article PMC10703858, “A simple and green capillary electrophoresis-mass spectrometry method for therapeutic drug monitoring of colistin in clinical plasma samples” (Heliyon, 2023)
